Experimental data reported in patent US20240246908A1 (ORION CORPORATION, priority 2021, published 2024).

system: YAP-TEAD; assay: TEAD inhibition, Hippo Pathway TEAD Reporter MCF-7 luciferase assay; type: cell-based; details: Homo sapiens, MCF7, 24 h, Hippo Pathway TEAD Reporter MCF-7 cells, luciferase activity after 24 h; read-out: IC50 of the test compounds on YAP-TEAD inhibition (Group)
How it was run: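 MCF-7 cells carrying a TEAD-responsive firefly luciferase reporter, with nuclear YAP1 driving constitutive expression, were treated the day after plating with compounds (11 concentrations, 4 replicates; 0.1% DMSO control). After 24 h, luciferase was read by ONE-Glo luminescence and IC50 determined.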

Row | IC50 [nM] | Compound
1 | 50 to 300 | CN1C(=O)CC[C@@H]1C(=O)Nc1cc(Oc2ccc(C(F)(F)F)cn2)cc2cccnc12 [Compound 281, (R)-1-Methyl-5-oxo-N-(6-((5-(trifluoromethyl)pyridin-2-yl)oxy)quinolin-8-yl)pyrrolidine-2-carboxamide]
2 | < 50 | COc1cc(NC(=O)[C@H]2CCC(=O)N2C)cc(OC2CCC(C(F)(F)F)CC2)c1 (stereo partly drawn) [Compound 282]
3 | < 50 | COc1ccc(Oc2ccc(C(F)(F)F)cn2)cc1NC(=O)[C@H]1CCC(=O)N1C [Compound 283, (R)—N-(2-Methoxy-5-((5-(trifluoromethyl)pyridin-2-yl)oxy)phenyl)-1-methyl-5-oxopyrrolidine-2-carboxamide]
4 | 50 to 300 | COc1cc(NC(=O)C2CCC(=O)N2C)cc(Oc2ccc(F)c(F)c2)c1 (stereo not drawn) [Compound 284, N-(3-(3,4-Difluorophenoxy)-5-methoxyphenyl)-1-methyl-5-oxopyrrolidine-2-carboxamide]
5 | 50 to 300 | COc1cc(NC(=O)[C@H]2CCC(=O)N2C)cc(Oc2ccc(F)c(F)c2)c1 [Compound 285, (R)—N-(3-(3,4-Difluorophenoxy)-5-methoxyphenyl)-1-methyl-5-oxopyrrolidine-2-carboxamide]
6 | 50 to 300 | COc1ccc(OC2CCCCC2)cc1NC(=O)C1CCC(=O)N1C (stereo not drawn) [Compound 286, N-(5-(Cyclohexyloxy)-2-methoxyphenyl)-1-methyl-5-oxopyrrolidine-2-carboxamide]
7 | 301 to 2000 | COc1ccc(OC2C=CCCC2)cc1NC(=O)C1CCC(=O)N1C (stereo not drawn) [Compound 287, N-(5-(Cyclohex-2-en-1-yloxy)-2-methoxyphenyl)-1-methyl-5-oxopyrrolidine-2-carboxamide]
8 | 50 to 300 | COc1ccc(Oc2ccc(Cl)cn2)cc1NC(=O)[C@@H]1CCC(=O)N1C [Compound 288, (S)—N-(5-((5-Chloropyridin-2-yl)oxy)-2-methoxyphenyl)-1-methyl-5-oxo-pyrrolidine-2-carboxamide]
9 | 301 to 2000 | COc1ccc(Oc2cccc(C(F)(F)F)c2)cc1NC(=O)C1CN(C(C)=O)C1 [Compound 289, 1-Acetyl-N-(2-methoxy-5-(3-(trifluoromethyl)phenoxy)phenyl)azetidine-3-carboxamide]
10 | < 50 | COc1ccc(Oc2ccc(OC(F)(F)F)cc2)cc1NC(=O)[C@H]1CCC(=O)N1C [Compound 290, (R)—N-(2-methoxy-5-(4-(trifluoromethoxy)phenoxy)phenyl)-1-methyl-5-oxopyrrolidine-2-carboxamide]
11 | 50 to 300 | COc1ccc(Oc2cccc(OC(F)(F)F)c2)cc1NC(=O)C1CCC(=O)N1C (stereo not drawn) [Compound 291, N-(2-methoxy-5-(3-(trifluoromethoxy)phenoxy)phenyl)-1-methyl-5-oxo-pyrrolidine-2-carboxamide]
12 | < 50 | COc1ccc(Oc2ccc(C(F)F)cc2)cc1NC(=O)C1CCC(=O)N1C (stereo not drawn) [Compound 292, N-(5-(4-(Difluoromethyl)phenoxy)-2-methoxyphenyl)-1-methyl-5-oxo-pyrrolidine-2-carboxamide]
13 | 50 to 300 | COc1cc(Oc2ccc(OC)c(NC(=O)[C@H]3CCC(=O)N3C)c2)ccc1F [Compound 293, (R)—N-(5-(4-Fluoro-3-methoxyphenoxy)-2-methoxyphenyl)-1-methyl-5-oxo-pyrrolidine-2-carboxamide]
14 | < 50 | COc1ccc(OCC2CCCCC2)cc1NC(=O)C1CCC(=O)N1C (stereo not drawn) [Compound 294, N-(5-(Cyclohexylmethoxy)-2-methoxyphenyl)-1-methyl-5-oxopyrrolidine-2-carboxamide]
15 | 50 to 300 | COc1ccc(Oc2ccc(OC)c(NC(=O)C3CCC(=O)N3C)c2)cc1F (stereo not drawn) [Compound 295, N-(5-(3-Fluoro-4-methoxyphenoxy)-2-methoxyphenyl)-1-methyl-5-oxo-pyrrolidine-2-carboxamide]
16 | < 50 | COc1ccc(OC2CCC(C)(C)CC2)cc1NC(=O)C1CCC(=O)N1C (stereo not drawn) [Compound 296, N-(5-((4,4-Dimethylcyclohexyl)oxy)-2-methoxyphenyl)-1-methyl-5-oxo-pyrrolidine-2-carboxamide]
17 | < 50 | COc1ccc(Sc2ccc(F)c(F)c2)cc1NC(=O)C1CCC(=O)N1C (stereo not drawn) [Compound 297, N-(5-((3,4-Difluorophenyl)thio)-2-methoxyphenyl)-1-methyl-5-oxopyrrolidine-2-carboxamide]
18 | < 50 | COc1ccc(Sc2ccc(F)c(F)c2)cc1NC(=O)C1CCC(=O)N1 (stereo not drawn) [Compound 298, N-(5-((3,4-Difluorophenyl)thio)-2-methoxyphenyl)-5-oxopyrrolidine-2-carboxamide]
19 | < 50 | COc1ccc(Oc2cccc(Br)c2)cc1NC(=O)C1CCC(=O)N1C (stereo not drawn) [Compound 299, N-(5-(3-Bromophenoxy)-2-methoxyphenyl)-1-methyl-5-oxopyrrolidine-2-carboxamide]
20 | < 50 | COc1ccc(Oc2ccc(OC(F)(F)F)cc2)cc1NC(=O)C1CCC(=O)N1 (stereo not drawn) [Compound 300, N-(2-Methoxy-5-(4-(trifluoromethoxy)phenoxy)phenyl)-5-oxopyrrolidine-2-carboxamide]

Row | IC50 [nM] | Compound
21 | 301 to 2000 | COc1ccc(Oc2ccc(OC(C)C)cc2)cc1NC(=O)C1CCC(=O)N1 (stereo not drawn) [Compound 301, N-(5-(4-Isopropoxyphenoxy)-2-methoxyphenyl)-5-oxopyrrolidine-2-carboxamide]
22 | 301 to 2000 | COc1ccc(OCC2CC(F)(F)C2)cc1NC(=O)C1CCC(=O)N1C (stereo not drawn) [Compound 302, N-(5-((3,3-Difluorocyclobutyl)methoxy)-2-methoxyphenyl)-1-methyl-5-oxopyrrolidine-2-carboxamide]
23 | 301 to 2000 | CN1C(=O)CCC1C(=O)Nc1cc(Oc2ccc(F)cc2)cc(C(F)(F)F)c1 (stereo not drawn) [Compound 303, N-(3-(4-Fluorophenoxy)-5-(trifluoromethyl)phenyl)-1-methyl-5-oxopyrrolidine-2-carboxamide]
24 | < 50 | COc1ccc(Oc2ccc(Cl)cc2)cc1NC(=O)C1CCC(=O)N1C (stereo not drawn) [Compound 304, N-(5-(4-Chlorophenoxy)-2-methoxyphenyl)-1-methyl-5-oxopyrrolidine-2-carboxamide]
25 | < 50 | COc1ccc(Oc2ccc(Cl)c(F)c2)cc1NC(=O)C1CCC(=O)N1C (stereo not drawn) [Compound 305, N-(5-(4-Chloro-3-fluorophenoxy)-2-methoxyphenyl)-1-methyl-5-oxopyrrolidine-2-carboxamide]
26 | 301 to 2000 | CN1C(=O)CCC1C(=O)Nc1cc(C#N)cc(Oc2ccc(C(F)(F)F)cc2)c1 (stereo not drawn) [Compound 306, N-(3-Cyano-5-(4-(trifluoromethyl)phenoxy)phenyl)-1-methyl-5-oxopyrrolidine-2-carboxamide]
27 | < 50 | COc1ccc(Oc2ccc(Cl)cc2)cc1NC(=O)[C@@H]1CCC(=O)N1C [Compound 307, (S)—N-(5-(4-Chlorophenoxy)-2-methoxyphenyl)-1-methyl-5-oxopyrrolidine-2-carboxamide]
28 | < 50 | COc1ccc(Oc2ccc(Cl)cc2)cc1NC(=O)[C@H]1CCC(=O)N1C [Compound 308, (R)—N-(5-(4-Chlorophenoxy)-2-methoxyphenyl)-1-methyl-5-oxopyrrolidine-2-carboxamide]
29 | 50 to 300 | COc1ccc(Oc2ccc(C#N)c(Cl)c2)cc1NC(=O)C1CCC(=O)N1C (stereo not drawn) [Compound 309, N-(5-(3-Chloro-4-cyanophenoxy)-2-methoxyphenyl)-1-methyl-5-oxopyrrolidine-2-carboxamide]
30 | 50 to 300 | COc1ccc(Oc2ccc(C#N)c(Cl)c2)cc1NC(=O)[C@@H]1CCC(=O)N1C [Compound 310, (S)—N-(5-(3-Chloro-4-cyanophenoxy)-2-methoxyphenyl)-1-methyl-5-oxo-pyrrolidine-2-carboxamide]
31 | 301 to 2000 | COc1ccc(Oc2ccc(C(F)(F)F)cc2)cc1NC(=O)[C@@H]1CCCN1S(C)(=O)=O [Compound 311, (S)—N-(2-Methoxy-5-(4-(trifluoromethyl)phenoxy)phenyl)-1-(methylsulfonyl)-pyrrolidine-2-carboxamide]
32 | < 50 | COc1ccc(Oc2ccc(Cl)c(F)c2)cc1NC(=O)[C@@H]1CCC(=O)N1C [Compound 312, (S)—N-(5-(4-Chloro-3-fluorophenoxy)-2-methoxyphenyl)-1-methyl-5-oxo-pyrrolidine-2-carboxamide]
33 | < 50 | COc1ccc(Oc2ccc(C(F)F)cc2)cc1NC(=O)[C@@H]1CCC(=O)N1C [Compound 313, (S)—N-(5-(4-(Difluoromethyl)phenoxy)-2-methoxyphenyl)-1-methyl-5-oxo-pyrrolidine-2-carboxamide]
34 | 50 to 300 | COc1ccc(Oc2ccc3c(c2)CCO3)cc1NC(=O)C1CCC(=O)N1C (stereo not drawn) [Compound 315, N-(5-((2,3-Dihydrobenzofuran-5-yl)oxy)-2-methoxyphenyl)-1-methyl-5-oxopyrrolidine-2-carboxamide]
35 | < 50 | COc1ccc(Oc2cccc(Cl)c2)cc1NC(=O)C1CCC(=O)N1C (stereo not drawn) [Compound 316, N-(5-(3-Chlorophenoxy)-2-methoxyphenyl)-1-methyl-5-oxopyrrolidine-2-carboxamide]
36 | < 50 | COCCN1C(=O)CCC1C(=O)Nc1cc(Oc2ccc(C(F)(F)F)cc2)ccc1OC (stereo not drawn) [Compound 318, N-(2-Methoxy-5-(4-(trifluoromethyl)phenoxy)phenyl)-1-(2-methoxyethyl)-5-oxopyrrolidine-2-carboxamide]
37 | < 50 | COc1ccc(Oc2ccc(C(F)F)cc2)cc1NC(=O)[C@H]1CCC(=O)N1C [Compound 319, (R)—N-(5-(4-(Difluoromethyl)phenoxy)-2-methoxyphenyl)-1-methyl-5-oxo-pyrrolidine-2-carboxamide]
38 | < 50 | COc1ccc(Oc2ccc(C(F)(F)F)cc2)cc1NC(=O)C1CCCC(=O)N1C (stereo not drawn) [Compound 320, N-(2-Methoxy-5-(4-(trifluoromethyl)phenoxy)phenyl)-1-methyl-6-oxo-piperidine-2-carboxamide]
39 | 50 to 300 | COc1ccc(Oc2ccc(F)c(F)c2)cc1NC(=O)C1CCCC(=O)N1C (stereo not drawn) [Compound 321, N-(5-(3,4-Difluorophenoxy)-2-methoxyphenyl)-1-methyl-6-oxopiperidine-2-carboxamide]
